Measured values: patent US20080305186A1, “Method and Composition for the Treatment of Cardiac Hypertrophy” (BOARD OF REGENTS, THE UNIVERSITY OF TEXAS SYSTEM, priority 2007, published 2008)

Test system: cardiac gene expression
Assay: Microarray analysis of cardiac gene expression (GeneChip Mouse Genome 430 2.0)
Format: in vivo, mice
Conditions: mouse heart, vs isoproterenol only (CH)
Procedure: Microarray Sample Preparation and Analysis. Animal hearts were rapidly removed, and the atria and right ventricles were cut and immediately plunged into TRIzol Reagent (Life Technologies). Total RNA was isolated following the manufacturer's instructions, purified by phenol-chloroform extraction and then ethanol precipitation, and 20 μg further processed for microarray analysis. Briefly, cDNA synthesis, in vitro transcription, and labeling and fragmentation to produce the oligonucleotide probes were performed as instructed by the GeneChip manufacturer (Affymetrix). The probes were first hybridized to a test array (Affymetrix) and then to the GeneChip Mouse Genome 430 2.0 Array, using the GeneChip Hybridization Oven 640. The chips were washed in a GeneChip Fluidics Station 450 (Affymetrix), and the results were visualized with a GeneChip G7 scanner (Affymetrix). RMA normalization, pairwise comparisons, Student's t test and Benjamini and Hochberg correction were subsequently performed using GeneSifter (VizX Labs, Seattle, Wash.) and Spotfire DecisionSite 8.3 (Spotfire, Inc., Somerville, Mass.).
Effects on Gene Expression Profile. […] One mouse heart was used for each array, and was performed in triplicate, generating a total of 12 arrays. GeneSifter was used to perform RMA normalization, pairwise comparisons of averaged signal intensity values, and Student's t-test with Benjamini and Hochberg correction, and Spotfire was used to perform pairwise comparisons. […] Additionally, genes that were altered between any two N or cardiac hypertrophy samples were removed, as these alterations most likely represented normal variations between mice.

## C[C@H]1c2cccc(O)c2C(=O)C2=C(O)[C@]3(O)C(=O)C(C(N)=O)=C(O)[C@@H](N(C)C)[C@@H]3[C@@H](O)[C@@H]21 [doxycycline]
CH vs normal 3.3
  FC cDNA, AK012898: −2.9 fold
CH vs normal 3.4
  FC Cyclin G2 (Ccng2), NM_007635: −3.1 fold
  FC TRAF2 and K interacting kinase (Tnik), AI117633: −3.4 fold
  FC cDNA, BB098431: −1.8 fold
CH vs normal 3.5
  FC Interleukin-1 receptor-associated kinase 3 (Irak3), AV228493: −2.1 fold
CH vs normal 3.6
  FC CD163 antigen (CD163), NM_053094: −2.1 fold
CH vs normal 3.7
  FC ATP-binding cassette, sub-family A (ABC1), member 1 (Abca1), BB305534: −1.9 fold
  FC Mcf.2 transforming sequee-like (Mcf21), AV293368: −2.3 fold
  FC cDNA, BE956710: −4.4 fold
  FC cDNA, BG276629: −3.1 fold
CH vs normal 3.8
  FC Lipopolysaccharide binding protein (Lbp), NM_008489: −3.4 fold
CH vs normal 3.9
  FC Alcohol dehydrogenase 1, complex (Adh1), BC013477: −3.4 fold
  FC Nuclear factor of kappa light polypeptide gene enhaer in B-cells inhibitor, zeta (Nfkbiz), NM_030612: −2.7 fold
  FC cDNA, BB038506: −2.1 fold
CH vs normal 4.0
  FC Alpha-2-HS-glycoprotein (Ahsg), AI256465: −2.7 fold
CH vs normal 4.1
  FC BCL2/adenovirus E1B interacting protein 1, NIP3 (Bnip3), NM_009760: −2.0 fold
  FC Chitinase 3-like 3 (Chi313), NM_009892: −4.1 fold
  FC Colony stimulating factor 2 receptor, beta 2, low-affinity (granulocyte-macrophage) (Csf2rb2), NM_007781: −2.9 fold
CH vs normal 4.3
  FC NADPH oxidase 4 (Nox4), BC021378: −3.2 fold
CH vs normal 4.4
  FC Calcium-sensitive chloride conductae protein-1 (Clca1), AF047838: −3.6 fold
  FC Connector enhaer of kinase suppressor of Ras 1 (Cnksr1), BB739754: −3.6 fold
CH vs normal 4.5
  FC cDNA, AK008807: −2.7 fold
CH vs normal 4.6
  FC Arrestin domain containing 2 (Arrdc2), AW542672: −3.5 fold
  FC cDNA, BM117672: −3.2 fold
CH vs normal 4.7
  FC Serum amyloid A 3 (Saa3), NM_011315: −4.1 fold
CH vs normal 4.9
  FC Caer related gene-liver 1 (CRG-L1), AF282864: −3.0 fold
  FC Calcium/calmodulin-dependent protein kinase II, beta (Camk2b), BG862223: −4.0 fold
CH vs normal 5.0
  FC Aryl hydrocarbon receptor nuclear translocator-like (Arnt1), BC011080: −5.1 fold
CH vs normal 5.1
  FC Oostatin receptor (Osmr), NM_011019: −2.6 fold
CH vs normal 5.2
  FC cDNA, BE634869: −2.8 fold
CH vs normal 5.3
  FC cDNA, BB795572: −2.3 fold
CH vs normal 5.4
  FC cDNA, AK009753: −3.0 fold
CH vs normal 5.5
  FC cDNA, AI607873: −4.0 fold
CH vs normal 6.0
  FC Cytokine inducible SH2-containing protein 3 (Socs3), BB241535: −3.5 fold
CH vs normal 6.4
  FC Apolipoprotein D (Apod), NM_007470: −3.4 fold
  FC Cytochrome P450, 1b1, benz(a)anthracene inducible (Cyp1b1), NM_009994: −3.2 fold
  FC Membrane-spanning 4-domains, subfamily A, member 6d (Ms4a6d), NM_026835: −2.3 fold
CH vs normal 6.6
  FC mVL30-1 retroelement mRNA sequee, BG066678: −4.2 fold
CH vs normal 6.8
  FC Proteoglycan 4 (megakaryocyte stimulating factor, articular superficial zone protein) (Prg4), NM_021400: −3.3 fold
CH vs normal 7.0
  FC cDNA, BF719154: −3.2 fold
CH vs normal 7.4
  FC CCAATenhaer binding protein (CEBP), delta (Cebpd), BB831146: −4.1 fold
  FC Ca(2+)-sensitive chloride channel 2 (Clca2), AF108501: −5.1 fold
  FC Lysyl oxidase (Lox), M65143: −2.7 fold
CH vs normal 7.8
  FC cDNA, AU018141: −3.2 fold
CH vs normal 8.2
  FC Cytokine inducible SH2-containing protein 3 (Socs3), BB831725: −4.9 fold
CH vs normal 10.6, first BF682848 line
  FC cDNA, BF682848: −5.7 fold
CH vs normal 10.8
  FC C-type (calcium dependent, carbohydrate recognition domain) lectin, superfamily member 8 (Clecsf8), NM_010819: −2.7 fold
CH vs normal 11.1
  FC Lysyl oxidase (Lox), NM_010728: −3.0 fold
CH vs normal 14.6
  FC Cyclin-dependent kinase inhibitor 1A (p21) (Cdkn1a), AK007630: −6.5 fold
CH vs normal 16.3
  FC FK506 binding protein 5 (51 kDa) (Fkbp5), BC015260: −4.5 fold
CH vs normal 21.4, second BF682848 line
  FC cDNA, BF682848: −5.2 fold
CH vs normal 27.7
  FC Lipocalin 2 (Lcn2), X14607: −13.3 fold
CH vs normal 40.5
  FC Serine protease inhibitor 2-2 (Spi2-2) (Serpin3n), NM_009252: −9.7 fold
CH vs normal −1.5
  FC Metallophosphoesterase domain containing 2 (Mpped2), AK012553: 2.0 fold
CH vs normal −1.6
  FC ATP-sensitive potassium channel subunit (Kir6.2) (Kcnj11), U73626: 1.8 fold
  FC CD99 antigen (CD99), AK002762: 1.6 fold
  FC CD248 antigen, endosialin (CD248), NM_054042: 1.7 fold
  FC cDNA, BB627097: 2.4 fold
  FC cDNA, BM229539: 2.1 fold
CH vs normal −1.7
  FC Cytoplasmic polyadenylation element binding protein 3 (Cpeb3), BB281000: 2.6 fold
